Data set [1] addresses T1, Cysteinyl leukotriene receptor 1 (Homo sapiens, UniProt Q9Y271).
T1 sequence (Q9Y271 whole entry): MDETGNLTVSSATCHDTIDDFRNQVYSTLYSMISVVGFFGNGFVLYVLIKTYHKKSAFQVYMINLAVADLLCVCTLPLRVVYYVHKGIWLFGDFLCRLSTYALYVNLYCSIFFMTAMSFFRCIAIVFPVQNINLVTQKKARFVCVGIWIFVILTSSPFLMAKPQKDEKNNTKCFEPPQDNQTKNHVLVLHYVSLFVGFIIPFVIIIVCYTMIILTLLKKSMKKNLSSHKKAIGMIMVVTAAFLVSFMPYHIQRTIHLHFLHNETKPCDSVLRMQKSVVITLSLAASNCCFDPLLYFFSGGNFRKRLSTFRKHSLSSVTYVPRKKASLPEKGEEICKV
The class given is cell membranes, CHO-K1, Membrane. Particulars: cho-k1.

In a further data set the target is Nitric oxide synthase 1 (Rattus norvegicus, UniProt P29476). The class given is tissue-based, Cerebellum. Note: in other assays of this panel Not Active means under 50% inhibition at 10 µM.
In another data set the target is Cytochrome P450 3A4 (Homo sapiens, UniProt P08684). Particulars: bti-tn-5b1-4. Note: in other assays of this panel Not Active means under 50% inhibition at 10 µM.
Data set [2] has as its target Protein kinase C alpha type (Homo sapiens, UniProt P17252). Format: cell-based. As to conditions: sf9.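 Note: inhibition of PKCalpha kinase activity measured in an enzyme assay with histone as the phosphorylation substrate; in other assays of this panel Not Active means under 50% inhibition at 10 µM.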
The target in data set [3] is Receptor tyrosine-protein kinase erbB-2 (Homo sapiens, UniProt P04626). The class given is cell-based. Particulars: insect cells.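 Note: inhibition of HER2 kinase enzyme activity, measured with Poly(Glu:Tyr) as the phosphorylation substrate; in other assays of this panel Not Active means under 50% inhibition at 10 µM.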
Data set [4] concerns the target Epidermal growth factor receptor (Homo sapiens, UniProt P00533). Nature of the data set: DRUGMATRIX: Protein Tyrosine Kinase, EGF Receptor enzyme inhibition (substrate: Poly(Glu:Tyr)). As to conditions: Not Active = under 50% inhibition at 10 µM. The class given is cell-based, Insect cells.
Data set [5] has as its target T2, Vasoactive intestinal polypeptide receptor 1 (Homo sapiens, UniProt P32241). Note: in other assays of this panel Not Active means under 50% inhibition at 10 µM.
T2 sequence (P32241 whole entry): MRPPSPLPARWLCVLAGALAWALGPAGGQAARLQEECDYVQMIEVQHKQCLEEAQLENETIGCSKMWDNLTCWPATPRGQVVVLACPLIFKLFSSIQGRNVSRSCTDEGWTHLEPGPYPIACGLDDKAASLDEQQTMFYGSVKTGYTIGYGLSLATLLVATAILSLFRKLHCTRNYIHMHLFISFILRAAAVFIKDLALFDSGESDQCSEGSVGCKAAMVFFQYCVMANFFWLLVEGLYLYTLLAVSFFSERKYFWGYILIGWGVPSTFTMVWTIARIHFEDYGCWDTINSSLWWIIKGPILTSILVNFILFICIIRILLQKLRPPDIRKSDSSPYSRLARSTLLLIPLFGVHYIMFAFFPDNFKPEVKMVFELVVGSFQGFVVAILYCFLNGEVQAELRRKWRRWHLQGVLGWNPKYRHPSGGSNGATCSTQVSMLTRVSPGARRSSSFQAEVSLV
Format: cell membranes, Membrane. Particulars: ht-29.

A further data set has as its target T3, Leukotriene C4 synthase (Cavia porcellus, UniProt A6XA80).
T3 sequence (A6XA80 whole entry): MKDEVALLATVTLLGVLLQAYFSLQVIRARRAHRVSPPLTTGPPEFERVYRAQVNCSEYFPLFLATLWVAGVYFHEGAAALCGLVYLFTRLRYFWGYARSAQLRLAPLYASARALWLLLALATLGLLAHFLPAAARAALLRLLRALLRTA
Nature of the data set: biochemical. The class given is tissue-based, Lung.

Structures are written as SMILES.

As a reminder, the IC50 is the concentration at which inhibition is half-maximal.

Chain of Receptor tyrosine-protein kinase erbB-2 (P04626 whole entry): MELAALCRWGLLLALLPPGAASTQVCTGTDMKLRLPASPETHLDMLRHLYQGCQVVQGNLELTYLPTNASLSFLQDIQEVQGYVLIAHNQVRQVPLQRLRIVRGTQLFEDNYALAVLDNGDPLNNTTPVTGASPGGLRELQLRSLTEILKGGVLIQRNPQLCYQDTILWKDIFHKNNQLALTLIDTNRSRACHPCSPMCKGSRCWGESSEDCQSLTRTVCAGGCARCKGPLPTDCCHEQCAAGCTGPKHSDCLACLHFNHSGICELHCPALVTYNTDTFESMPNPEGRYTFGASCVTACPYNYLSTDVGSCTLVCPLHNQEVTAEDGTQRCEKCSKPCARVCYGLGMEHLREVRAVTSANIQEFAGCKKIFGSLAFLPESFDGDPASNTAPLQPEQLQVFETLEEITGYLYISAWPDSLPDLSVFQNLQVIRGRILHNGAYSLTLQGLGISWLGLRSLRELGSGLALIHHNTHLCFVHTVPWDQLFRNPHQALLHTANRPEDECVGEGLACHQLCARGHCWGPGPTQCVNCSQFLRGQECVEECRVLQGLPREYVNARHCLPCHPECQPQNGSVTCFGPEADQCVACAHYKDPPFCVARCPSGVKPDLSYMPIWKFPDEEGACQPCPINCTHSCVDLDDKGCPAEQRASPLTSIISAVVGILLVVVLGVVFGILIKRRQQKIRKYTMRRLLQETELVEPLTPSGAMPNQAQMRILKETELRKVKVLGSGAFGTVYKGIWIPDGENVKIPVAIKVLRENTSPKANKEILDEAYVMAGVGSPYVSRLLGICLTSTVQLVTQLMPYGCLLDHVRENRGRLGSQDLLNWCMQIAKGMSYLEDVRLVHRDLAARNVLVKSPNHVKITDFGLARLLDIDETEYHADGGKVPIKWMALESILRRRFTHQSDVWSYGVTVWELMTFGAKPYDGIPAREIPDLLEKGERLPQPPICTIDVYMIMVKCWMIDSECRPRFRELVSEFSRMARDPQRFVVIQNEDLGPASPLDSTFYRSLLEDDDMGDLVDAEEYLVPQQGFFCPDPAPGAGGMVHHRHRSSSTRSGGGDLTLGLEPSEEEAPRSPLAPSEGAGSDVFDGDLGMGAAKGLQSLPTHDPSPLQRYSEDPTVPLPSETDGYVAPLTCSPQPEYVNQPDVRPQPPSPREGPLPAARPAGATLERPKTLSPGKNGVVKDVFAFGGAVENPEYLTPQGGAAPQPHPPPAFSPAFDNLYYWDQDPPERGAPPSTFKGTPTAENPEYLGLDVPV
Chain of Nitric oxide synthase 1 (P29476 whole entry): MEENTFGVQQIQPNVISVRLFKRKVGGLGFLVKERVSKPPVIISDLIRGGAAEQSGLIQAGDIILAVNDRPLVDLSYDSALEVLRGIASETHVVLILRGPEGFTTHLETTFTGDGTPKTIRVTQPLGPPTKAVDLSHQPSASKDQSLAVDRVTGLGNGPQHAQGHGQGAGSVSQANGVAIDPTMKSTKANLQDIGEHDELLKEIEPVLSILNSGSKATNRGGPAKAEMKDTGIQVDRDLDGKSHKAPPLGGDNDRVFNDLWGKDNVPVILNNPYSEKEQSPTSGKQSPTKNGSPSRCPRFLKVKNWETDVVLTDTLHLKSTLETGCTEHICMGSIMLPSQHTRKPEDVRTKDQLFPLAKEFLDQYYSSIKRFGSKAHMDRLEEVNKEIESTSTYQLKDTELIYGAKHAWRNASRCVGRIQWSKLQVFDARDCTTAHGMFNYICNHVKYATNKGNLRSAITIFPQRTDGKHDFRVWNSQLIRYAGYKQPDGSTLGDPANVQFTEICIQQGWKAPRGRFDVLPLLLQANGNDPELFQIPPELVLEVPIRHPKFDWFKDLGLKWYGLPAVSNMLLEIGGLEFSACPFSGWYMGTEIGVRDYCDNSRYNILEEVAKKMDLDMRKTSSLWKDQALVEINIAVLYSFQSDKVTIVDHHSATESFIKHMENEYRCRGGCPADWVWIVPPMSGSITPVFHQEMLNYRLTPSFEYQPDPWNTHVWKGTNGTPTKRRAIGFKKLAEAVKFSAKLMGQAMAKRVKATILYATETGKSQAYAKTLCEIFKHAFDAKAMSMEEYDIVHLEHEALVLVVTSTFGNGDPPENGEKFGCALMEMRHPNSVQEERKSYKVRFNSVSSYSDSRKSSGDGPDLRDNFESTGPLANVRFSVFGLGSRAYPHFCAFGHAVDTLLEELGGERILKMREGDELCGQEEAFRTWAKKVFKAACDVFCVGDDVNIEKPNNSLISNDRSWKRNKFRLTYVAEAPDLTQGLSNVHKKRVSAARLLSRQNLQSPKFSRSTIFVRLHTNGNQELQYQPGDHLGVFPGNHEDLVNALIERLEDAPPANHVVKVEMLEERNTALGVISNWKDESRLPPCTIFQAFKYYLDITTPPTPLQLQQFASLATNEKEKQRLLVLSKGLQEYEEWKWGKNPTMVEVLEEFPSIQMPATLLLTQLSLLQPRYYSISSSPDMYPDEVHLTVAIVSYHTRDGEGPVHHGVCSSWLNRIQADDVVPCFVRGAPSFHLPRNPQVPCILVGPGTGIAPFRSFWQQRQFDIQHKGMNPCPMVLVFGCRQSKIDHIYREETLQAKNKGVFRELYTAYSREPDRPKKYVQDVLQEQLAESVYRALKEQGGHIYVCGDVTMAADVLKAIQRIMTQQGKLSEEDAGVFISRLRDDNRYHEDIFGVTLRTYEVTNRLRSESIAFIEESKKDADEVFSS
Chain of Cytochrome P450 3A4 (P08684 whole entry): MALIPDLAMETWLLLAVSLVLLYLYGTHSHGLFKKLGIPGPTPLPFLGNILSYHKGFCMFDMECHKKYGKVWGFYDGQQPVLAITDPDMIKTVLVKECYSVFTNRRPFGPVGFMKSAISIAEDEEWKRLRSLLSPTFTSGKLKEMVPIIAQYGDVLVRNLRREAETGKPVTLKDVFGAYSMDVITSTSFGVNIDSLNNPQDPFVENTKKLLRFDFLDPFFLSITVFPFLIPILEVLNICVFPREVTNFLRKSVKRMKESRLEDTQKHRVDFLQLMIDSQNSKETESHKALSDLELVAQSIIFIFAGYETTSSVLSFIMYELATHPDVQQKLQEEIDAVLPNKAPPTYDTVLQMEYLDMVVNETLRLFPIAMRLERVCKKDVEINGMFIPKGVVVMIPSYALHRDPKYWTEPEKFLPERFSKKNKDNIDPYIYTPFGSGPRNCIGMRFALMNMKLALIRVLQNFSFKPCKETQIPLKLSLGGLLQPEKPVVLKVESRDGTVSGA
Chain of Epidermal growth factor receptor (P00533 whole entry): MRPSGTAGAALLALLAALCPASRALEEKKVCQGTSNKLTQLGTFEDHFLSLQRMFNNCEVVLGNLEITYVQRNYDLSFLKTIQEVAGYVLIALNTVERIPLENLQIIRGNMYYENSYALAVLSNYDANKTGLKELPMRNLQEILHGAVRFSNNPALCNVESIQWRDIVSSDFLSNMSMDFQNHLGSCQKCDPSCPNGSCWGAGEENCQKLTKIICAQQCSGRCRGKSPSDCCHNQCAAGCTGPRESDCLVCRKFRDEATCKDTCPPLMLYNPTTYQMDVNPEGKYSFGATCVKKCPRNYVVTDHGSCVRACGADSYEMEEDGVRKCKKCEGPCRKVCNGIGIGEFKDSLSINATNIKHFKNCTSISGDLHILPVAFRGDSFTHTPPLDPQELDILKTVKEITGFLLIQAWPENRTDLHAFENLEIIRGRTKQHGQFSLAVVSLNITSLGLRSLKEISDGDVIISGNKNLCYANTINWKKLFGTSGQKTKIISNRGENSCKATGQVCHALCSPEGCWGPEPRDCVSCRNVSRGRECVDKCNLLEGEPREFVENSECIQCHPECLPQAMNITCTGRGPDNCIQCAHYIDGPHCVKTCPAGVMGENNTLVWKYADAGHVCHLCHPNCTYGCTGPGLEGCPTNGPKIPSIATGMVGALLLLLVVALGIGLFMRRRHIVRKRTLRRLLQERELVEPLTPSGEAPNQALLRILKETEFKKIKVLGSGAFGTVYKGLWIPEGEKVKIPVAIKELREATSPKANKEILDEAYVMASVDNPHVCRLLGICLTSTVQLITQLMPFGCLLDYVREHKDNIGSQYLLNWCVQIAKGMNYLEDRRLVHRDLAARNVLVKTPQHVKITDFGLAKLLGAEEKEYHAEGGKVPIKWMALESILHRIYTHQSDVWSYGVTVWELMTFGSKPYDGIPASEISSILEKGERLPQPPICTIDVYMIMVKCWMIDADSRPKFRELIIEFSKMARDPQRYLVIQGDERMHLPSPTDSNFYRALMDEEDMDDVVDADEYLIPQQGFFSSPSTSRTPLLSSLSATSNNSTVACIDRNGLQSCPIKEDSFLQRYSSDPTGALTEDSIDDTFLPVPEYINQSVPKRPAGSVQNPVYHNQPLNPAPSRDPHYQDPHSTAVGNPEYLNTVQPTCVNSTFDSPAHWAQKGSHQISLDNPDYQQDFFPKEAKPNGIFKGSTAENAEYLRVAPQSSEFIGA

`Cc1c(N)nc([C@H](CC(N)=O)NC[C@H](N)C(N)=O)nc1C(=O)N[C@H](C(=O)N[C@H](C)[C@@H](O)[C@H](C)C(=O)N[C@H](C(=O)NCCc1nc(-c2nc(C(=O)NCCC[S+](C)C)cs2)cs1)[C@@H](C)O)[C@@H](O[C@@H]1O[C@@H](CO)[C@@H](O)[C@H](O)[C@@H]1O[C@H]1O[C@H](CO)[C@@H](O)[C@H](OC(N)=O)[C@@H]1O)c1c[nH]cn1.[Br-]` [BLEOMYCIN A2]: the IC50 result (in data set [1]; at Nitric oxide synthase 1; against Cytochrome P450 3A4; in data set [2]; in data set [3]; in data set [4] (insect cells)) was “Not Active” each time. Besides, the IC50 result (in data set [5]; at Leukotriene C4 synthase) was “Not Active” each time. Moreover, the Ki entry at Cytochrome P450 3A4 is on record as “Not Active”.

With `CN(Cc1cc(Br)cc(Br)c1N)C1CCCCC1` [BROMHEXINE], the IC50 entry (in data set [1]; at Nitric oxide synthase 1; at Cytochrome P450 3A4; in data set [2]; in data set [3]; in data set [4] (insect cells)) was “Not Active” in each case. In addition, the IC50 entry (in data set [5]; at Leukotriene C4 synthase) was “Not Active” each time. Moreover, the Ki entry on Cytochrome P450 3A4 was “Not Active”.

Take `CC(N)Cc1c[nH]c2ccc(OCc3cccs3)cc12` (centres undefined) [BW-723C86]: the IC50 entry (in data set [1]; at Nitric oxide synthase 1; against Cytochrome P450 3A4; in data set [2]; in data set [3]; in data set [4] (insect cells)) was “Not Active” in each case. The IC50 entry (in data set [5]; against Leukotriene C4 synthase) was “Not Active” in each case. Further, the Ki result at Cytochrome P450 3A4 is given as “Not Active”.

Turning to `CC12CCC(CC1=O)C2(C)C` (centres undefined) [CAMPHOR], the IC50 entry (in data set [1]; against Nitric oxide synthase 1; against Cytochrome P450 3A4; in data set [2]; in data set [3]; in data set [4] (insect cells)) was “Not Active” throughout. For the same compound, the IC50 entry (in data set [5]; at Leukotriene C4 synthase) was “Not Active” throughout. Moreover, at Cytochrome P450 3A4, the Ki entry was “Not Active”.

For `C[N+](C)(C)CCOC(N)=O.[Cl-]` [CARBACHOL], the IC50 entry (in data set [1]; against Nitric oxide synthase 1; against Cytochrome P450 3A4; in data set [2]; in data set [3]; in data set [4] (insect cells)) was “Not Active” in each case. Also, the IC50 result (in data set [5]; at Leukotriene C4 synthase) was “Not Active” throughout. Also, the Ki entry on Cytochrome P450 3A4 was “Not Active”.

Regarding `CCCCCCNC(=O)n1cc(F)c(=O)[nH]c1=O` [CARMOFUR], the IC50 entry (in data set [1]; at Nitric oxide synthase 1; on Cytochrome P450 3A4; in data set [2]; in data set [3]; in data set [4] (insect cells)) was “Not Active” each time. Further, the IC50 entry (in data set [5]; on Leukotriene C4 synthase) was “Not Active” in each case. In addition, the Ki entry at Cytochrome P450 3A4 was “Not Active”.

On to `COc1ccccc1OCCNCC(O)COc1cccc2[nH]c3ccccc3c12` (centres undefined) [CARVEDILOL], for which the IC50 entry (in data set [1]; against Nitric oxide synthase 1; on Cytochrome P450 3A4; in data set [2]; in data set [3]; in data set [4] (insect cells)) was “Not Active” throughout. The IC50 result (in data set [5]; on Leukotriene C4 synthase) was “Not Active” in each case. Besides, on Cytochrome P450 3A4, the Ki entry is given as “Not Active”.

Take `Cl.NC[C@H]1CC[C@H](C(=O)Oc2ccc(CCC(=O)O)cc2)CC1` [CETRAXATE HYDROCHLORIDE]: the IC50 result (in data set [1]; at Nitric oxide synthase 1; against Cytochrome P450 3A4; in data set [2]; in data set [3]; in data set [4] (insect cells)) was “Not Active” in each case. The IC50 entry (in data set [5]; on Leukotriene C4 synthase) was “Not Active” throughout. For the same compound, the Ki entry on Cytochrome P450 3A4 is “Not Active”.

Regarding `CC1(COc2ccc(CC3SC(=O)NC3=O)cc2)CCCCC1` (centres undefined) [CIGLITAZONE], the IC50 entry is “Not Active” in data set [1]; “Not Active” on Nitric oxide synthase 1; “Not Active” against Cytochrome P450 3A4; “Not Active” in data set [2]; “Not Active” in data set [3]; 4.66 µM in data set [4] (read-out: IC50). Moreover, the IC50 entry (in data set [5]; at Leukotriene C4 synthase) was “Not Active” in each case. The Ki result on Cytochrome P450 3A4 was “Not Active”.

In the case of `CC(C)Cc1ccc([C@H](C)C(=O)O)cc1` [DEXIBUPROFEN], the IC50 result (in data set [1]; on Nitric oxide synthase 1; at Cytochrome P450 3A4; in data set [2]; in data set [3]; in data set [4] (insect cells)) was “Not Active” in each case. Further, the IC50 entry (in data set [5]; on Leukotriene C4 synthase) was “Not Active” each time. Also, the Ki result at Cytochrome P450 3A4 was “Not Active”.

As to `O=c1[nH]cnc2c1ncn2[C@H]1CC[C@@H](CO)O1` [DIDANOSINE], the IC50 result (in data set [1]; at Nitric oxide synthase 1; on Cytochrome P450 3A4; in data set [2]; in data set [3]; in data set [4] (insect cells)) was “Not Active” in each case. The IC50 entry (in data set [5]; on Leukotriene C4 synthase) was “Not Active” each time. In addition, the Ki entry on Cytochrome P450 3A4 is “Not Active”.

Take `ClC1=C(Cl)[C@]2(Cl)[C@@H]3[C@@H]4C[C@@H]([C@H]5O[C@@H]45)[C@@H]3[C@@]1(Cl)C2(Cl)Cl` [DIELDRIN]: the IC50 entry (in data set [1]; against Nitric oxide synthase 1; at Cytochrome P450 3A4; in data set [2]; in data set [3]; in data set [4] (insect cells)) was “Not Active” each time. Further, the IC50 result (in data set [5]; on Leukotriene C4 synthase) was “Not Active” throughout. The Ki entry at Cytochrome P450 3A4 was “Not Active”.

Take `CCN1CCN(c2cc3c(cc2F)c(=O)c(C(=O)O)cn3C2CC2)CC1` [ENROFLOXACIN]: the IC50 entry (in data set [1]; on Nitric oxide synthase 1; at Cytochrome P450 3A4; in data set [2]; in data set [3]; in data set [4] (insect cells)) was “Not Active” in each case. Also, the half-maximal inhibitory concentration (IC50) entry (in data set [5]; at Leukotriene C4 synthase) was “Not Active” in each case. On Cytochrome P450 3A4, the Ki result was “Not Active”.

Take `CNC[C@H](O)c1ccc(O)c(O)c1` [EPINEPHRINE]: the IC50 entry (in data set [1]; at Nitric oxide synthase 1; against Cytochrome P450 3A4; in data set [2]; in data set [3]; in data set [4] (insect cells)) was “Not Active” in each case. For the same compound, the IC50 entry (in data set [5]; on Leukotriene C4 synthase) was “Not Active” throughout. Also, the Ki entry on Cytochrome P450 3A4 is “Not Active”.

`CC[C@H]1OC(=O)[C@H](C)[C@@H](O[C@H]2C[C@@](C)(OC)[C@@H](O)[C@H](C)O2)[C@H](C)[C@@H](O[C@@H]2O[C@H](C)C[C@H](N(C)C)[C@H]2O)[C@](C)(O)C[C@@H](C)C(=O)[C@H](C)[C@@H](O)[C@]1(C)O` [ERYTHROMYCIN]: the IC50 entry (in data set [1]; at Nitric oxide synthase 1; against Cytochrome P450 3A4; in data set [2]; in data set [3]; in data set [4] (insect cells)) was “Not Active” in each case. Moreover, the IC50 result (in data set [5]; at Leukotriene C4 synthase) was “Not Active” each time. Also, on Cytochrome P450 3A4, the Ki result is listed as “Not Active”.

`CC12CCC(CC1)C(C)(C)O2` [EUCALYPTOL]: the IC50 result (in data set [1]; against Nitric oxide synthase 1; on Cytochrome P450 3A4; in data set [2]; in data set [3]; in data set [4] (insect cells)) was “Not Active” throughout. Besides, the IC50 entry (in data set [5]; against Leukotriene C4 synthase) was “Not Active” throughout. The Ki entry at Cytochrome P450 3A4 is reported as “Not Active”.

For the origin of these results see ChEMBL document CHEMBL1909046, “DrugMatrix in vitro pharmacology data”.
